Species on record: Rattus norvegicus
Assay: DrugMatrix - Regimen: Daily Repeat
Format: toxicity, organism-based, Sprague-Dawley
Design: regimen Daily Repeat, gender Male, age 6-8 weeks
Details: in vivo, sc, route subcutaneous, […]; for ABSOLUTE BASOPHIL / ABSOLUTE EOSINOPHIL / ABSOLUTE LYMPHOCYTE / ABSOLUTE MONOCYTE / ABSOLUTE SEGMENTED NEUTROPHIL / BASOPHIL / EOSINOPHIL / ERYTHROCYTE COUNT / HEMATOCRIT / LEUKOCYTE COUNT / MEAN CORPUSCULAR HEMOGLOBIN / MEAN CORPUSCULAR HEMOGLOBIN CONCENTRATION / MEAN CORPUSCULAR VOLUME / MONOCYTE / NEUTROPHIL / NUCLEATED RED BLOOD CELLS / PLATELET COUNT: tissue Blood; for ALANINE AMINOTRANSFERASE / ALBUMIN / ALKALINE PHOSPHATASE / ASPARTATE AMINOTRANSFERASE / BLOOD UREA NITROGEN / CHLORIDE / CHOLESTEROL / CREATINE PHOSPHOKINASE / CREATININE / GLUCOSE / LACTATE DEHYDROGENASE / LIPASE / PHOSPHORUS / POTASSIUM / TOTAL BILIRUBIN / URIC ACID: tissue Plasma
[1] = 0 mg/kg, 72 h, dose level Control, time 3 day
[2] = 0 mg/kg, 120 h, dose level Control, time 5 day
[3] = 79 mg/kg, 72 h, dose level High, time 3 day

C[C@H]1C[C@H]2[C@@H]3CCC4=CC(=O)C=C[C@]4(C)[C@@]3(F)[C@@H](O)C[C@]2(C)[C@@]1(O)C(=O)CO [BETAMETHASONE]
ABSOLUTE BASOPHIL [1]: 0 CELLS/uL
ABSOLUTE EOSINOPHIL [1]: 0 CELLS/uL
ABSOLUTE LYMPHOCYTE [1]: 10887 CELLS/uL
ABSOLUTE MONOCYTE [1]: 56 CELLS/uL
ABSOLUTE SEGMENTED NEUTROPHIL [1]: 1057 CELLS/uL
BASOPHIL [1]: 0%
EOSINOPHIL [1]: 0%
ERYTHROCYTE COUNT [1]: 5.31 x10E6/uL
HEMATOCRIT [1]: 33.78%
LEUKOCYTE COUNT [1]: 12 x10E3/uL
MEAN CORPUSCULAR HEMOGLOBIN [1]: 25.25 pg
MEAN CORPUSCULAR HEMOGLOBIN CONCENTRATION [1]: 39.65 G/DL
MEAN CORPUSCULAR VOLUME [1]: 63.65 fL
MONOCYTE [1]: 0.5%
NEUTROPHIL [1]: 8.33%
NUCLEATED RED BLOOD CELLS [1]: 0 /100WBC
PLATELET COUNT [1]: 1142 x10E3/uL
ALANINE AMINOTRANSFERASE [1]: 57.17 u/L
ALBUMIN [1]: 4.28 G/DL
ALKALINE PHOSPHATASE [1]: 425.83 u/L
ASPARTATE AMINOTRANSFERASE [1]: 93.83 u/L
BLOOD UREA NITROGEN [1]: 14.17 mg/dL
CHLORIDE [1]: 100 MEQ/L
CHOLESTEROL [1]: 70.33 mg/dL
CREATINE PHOSPHOKINASE [1]: 438.67 u/L
CREATININE [1]: 0.19 mg/dL
GLUCOSE [1]: 138.5 mg/dL
LACTATE DEHYDROGENASE [1]: 190.17 u/L
LIPASE [1]: 9.83 u/L
PHOSPHORUS [1]: 11.05 mg/dL
POTASSIUM [1]: 6.59 MEQ/L
TOTAL BILIRUBIN [1]: 0.22 mg/dL
URIC ACID [1]: 1.3 mg/dL
ABSOLUTE BASOPHIL [2]: 0 CELLS/uL
ABSOLUTE EOSINOPHIL [2]: 91.17 CELLS/uL
ABSOLUTE LYMPHOCYTE [2]: 11847.67 CELLS/uL
ABSOLUTE MONOCYTE [2]: 172.83 CELLS/uL
ABSOLUTE SEGMENTED NEUTROPHIL [2]: 1105 CELLS/uL
BASOPHIL [2]: 0%
EOSINOPHIL [2]: 0.67%
ERYTHROCYTE COUNT [2]: 5.35 x10E6/uL
HEMATOCRIT [2]: 33.65%
LEUKOCYTE COUNT [2]: 13.22 x10E3/uL
MEAN CORPUSCULAR HEMOGLOBIN [2]: 25.12 pg
MEAN CORPUSCULAR HEMOGLOBIN CONCENTRATION [2]: 39.9 G/DL
MEAN CORPUSCULAR VOLUME [2]: 63 fL
MONOCYTE [2]: 1.33%
NEUTROPHIL [2]: 8.17%
NUCLEATED RED BLOOD CELLS [2]: 0 /100WBC
PLATELET COUNT [2]: 1347.83 x10E3/uL
ALANINE AMINOTRANSFERASE [2]: 50 u/L
ALBUMIN [2]: 4.1 G/DL
ALKALINE PHOSPHATASE [2]: 329.17 u/L
ASPARTATE AMINOTRANSFERASE [2]: 77.17 u/L
BLOOD UREA NITROGEN [2]: 16.83 mg/dL
CHLORIDE [2]: 99.83 MEQ/L
CHOLESTEROL [2]: 75.67 mg/dL
CREATINE PHOSPHOKINASE [2]: 295.83 u/L
CREATININE [2]: 0.18 mg/dL
GLUCOSE [2]: 156.33 mg/dL
LACTATE DEHYDROGENASE [2]: 166.83 u/L
LIPASE [2]: 9.83 u/L
PHOSPHORUS [2]: 12.18 mg/dL
POTASSIUM [2]: 6.69 MEQ/L
TOTAL BILIRUBIN [2]: 0.22 mg/dL
URIC ACID [2]: 1.6 mg/dL
ABSOLUTE BASOPHIL [3]: 0 CELLS/uL
ABSOLUTE EOSINOPHIL [3]: 18 CELLS/uL
ABSOLUTE LYMPHOCYTE [3]: 1334 CELLS/uL
ABSOLUTE MONOCYTE [3]: 44 CELLS/uL
ABSOLUTE SEGMENTED NEUTROPHIL [3]: 3004 CELLS/uL
BASOPHIL [3]: 0%
EOSINOPHIL [3]: 0.33%
ERYTHROCYTE COUNT [3]: 5.69 x10E6/uL
HEMATOCRIT [3]: 36.67%
LEUKOCYTE COUNT [3]: 4.4 x10E3/uL
MEAN CORPUSCULAR HEMOGLOBIN [3]: 25.27 pg
MEAN CORPUSCULAR HEMOGLOBIN CONCENTRATION [3]: 39.2 G/DL
MEAN CORPUSCULAR VOLUME [3]: 64.47 fL
MONOCYTE [3]: 1%
NEUTROPHIL [3]: 69%
NUCLEATED RED BLOOD CELLS [3]: 0 /100WBC
PLATELET COUNT [3]: 1406 x10E3/uL
ALANINE AMINOTRANSFERASE [3]: 146.33 u/L
ALBUMIN [3]: 5.37 G/DL
ALKALINE PHOSPHATASE [3]: 302 u/L
ASPARTATE AMINOTRANSFERASE [3]: 178 u/L
BLOOD UREA NITROGEN [3]: 25 mg/dL
CHLORIDE [3]: 96.67 MEQ/L
CHOLESTEROL [3]: 124.33 mg/dL
CREATINE PHOSPHOKINASE [3]: 219.33 u/L
CREATININE [3]: 0.27 mg/dL
GLUCOSE [3]: 443 mg/dL
LACTATE DEHYDROGENASE [3]: 492.67 u/L
LIPASE [3]: 12.67 u/L
PHOSPHORUS [3]: 11.8 mg/dL
POTASSIUM [3]: 6.32 MEQ/L
TOTAL BILIRUBIN [3]: 0.2 mg/dL
URIC ACID [3]: 1.43 mg/dL
